Laboratory results as given in paper PMC5883364 (Malaria Journal, 2018).
Values joined by “and” are separate entries in the source; they are usually repeats but may differ in a detail not shown here. Identical values can stand only once. “Also recorded” adds a separate entry of the source. Like-named read-outs stand apart in the source and are kept apart here.

Key:
[1] = tested on: P. falciparum 3D7 (chloroquine and mefloquine sensitive); assay: SYBR Green I assay, IC50, strain 3D7; assay type: cell-based, Plasmodium falciparum; conditions: read-out: P. falciparum IC50 ± SD, 3D7
Procedure: (§1) Staging and parasitaemia were determined by light microscopy of Giemsa-stained thin blood smears. Anti-malarial activity was determined using the SYBR Green I assay, as previously described.

[2] = tested on: V79 (Chinese hamster lung) cells; conditions: for LD50 V79: Chinese hamster, 24 h; for Selectivity index LD50 (V79)/IC50 (3D7): V79 vs 3D7; for Selectivity index LD50 (V79)/IC50 (Dd2): V79 vs Dd2; for Selectivity index LD50 (V79)/IC50 (IPC4912): V79 vs IPC4912; for Selectivity index LD50 (V79)/IC50 (IPC5202): V79 vs IPC5202
Procedure: (§2) Cytotoxicity was assessed on the mammalian cell lines HepG2-A16 (human hepatoma) and V79 (Chinese hamster lung), using a MTT based assay, as previously described. […] V79 and HepG2 cell lines were incubated for 24 and 48 h, respectively (media changed at 24 h intervals). Absorbance was read at 570 nm on a multi-mode microplate reader (Triad, Dynex Technologies), to produce a log dose-dependence curve. The LD50 value for each compound was estimated by non-linear interpolation of the dose-dependence curve (GraphPad Software).

[3] = tested on: HepG2-A16 (human hepatoma) cells; conditions: for Selectivity index LD50 (HepG2)/IC50 (3D7): HepG2 vs 3D7; for Selectivity index LD50 (HepG2)/IC50 (Dd2): HepG2 vs Dd2; for Selectivity index LD50 (HepG2)/IC50 (IPC4912): HepG2 vs IPC4912; for Selectivity index LD50 (HepG2)/IC50 (IPC5202): HepG2 vs IPC5202; for LD50 HepG2: human, 48 h
Procedure: as §2

[4] = tested on: P. falciparum IPC5202 (artemisinin-resistant, K13 R539T); assay: SYBR Green I assay, IC50, strain IPC5202; assay type: cell-based, Plasmodium falciparum; conditions: for Resistance Index RIb = IC50 (IPC5202)/IC50 (3D7): IPC5202 vs 3D7; for IC50: Plasmodium falciparum, read-out: P. falciparum IC50 ± SD, IPC5202, strain IPC5202
Procedure: as §1

[5] = tested on: P. falciparum IPC4912 (artemisinin-resistant, K13 I543T); assay: SYBR Green I assay, IC50, strain IPC4912; assay type: cell-based, Plasmodium falciparum; conditions: for Resistance Index RIc = IC50 (IPC4912)/IC50 (3D7): IPC4912 vs 3D7; for IC50: Plasmodium falciparum, read-out: P. falciparum IC50 ± SD, IPC4912
Procedure: Staging and parasitaemia were determined by light microscopy of Giemsa-stained thin blood smears. Anti-malarial activity was determined using the SYBR Green I assay, as previously described. Briefly, early ring stage parasites (> 80% of rings) were challenged with a 1:3 serial dilution of each compound, in concentrations ranging from 10,000–0.169 nM. Fluorescence intensity was measured with a multi-mode microplate reader (Triad, Dynex Technologies), with excitation and emission wavelengths of 485 and 535 nm, respectively, and analysed by nonlinear regression using GraphPad Prism to determine IC50 values.

[6] = tested on: P. falciparum Dd2 (chloroquine-resistant, mefloquine-resistant); assay: SYBR Green I assay, IC50, strain Dd2; assay type: cell-based, Plasmodium falciparum; conditions: for IC50: read-out: P. falciparum IC50 ± SD, Dd2; for Resistance Index RIa = IC50 (Dd2)/IC50 (3D7): Dd2 vs 3D7
Procedure: as §1

[7] = tested on: P. falciparum 3D7 ring-stage parasites; assay: Ring-stage survival assay (RSA), 3D7; assay type: cell-based, Plasmodium falciparum; conditions: 6 h pulse, 10 x IC50 (DHA 700 nM), ART-S strain 3D7
Procedure: (§3) Ring-stage survival assays (RSA) were carried out as described in [21], with modifications. Parasite cultures were synchronized once, with 5% sorbitol, and in the next reinvasion cycle, twice, with a 6 h interval. […] Then, plates were centrifuged and supernatant replaced by drug-free culture media. After additional incubation during 66 h for ring-stage, and 42 h for mature-stage, susceptibility was assessed microscopically on Giemsa-stained thin blood smears by estimating the percentage of viable parasites that developed into a second generation of rings or trophozoites.

Plasmodium berghei NK65 = assay: Peters' 4-day suppressive test in Swiss albino mice; assay type: in vivo; conditions: for in vivo outcome against P. berghei in words: followed to day 10; for inhibition in vivo at 50 mg/kg/day: Plasmodium berghei
Procedure: (§4) In vivo tests were performed following the Guidelines for Ethical Conduct in The Care and Use of Animals of the Federal University of Rio Grande do Norte—Brazil (CEUA/UFRN/46/2013). Evaluation of anti-malarial activity in vivo was carried out using the Peters’ 4-day suppressive test, with modifications, as previously described. Swiss albino mice were infected with Plasmodium berghei NK65 and randomly allocated to groups of five animals. Animals were treated with 50 mg/kg/day of each of the tested compounds (dissolved in PBS containing 1% DMSO), administrated orally, for four consecutive days. The control group was treated with a solution of PBS/1% DMSO. On days 5 (D5), 7 (D7) and 10 (D10) after parasite inoculation, tail blood smears were Giemsa-stained and examined microscopically to estimate parasitaemia. Acute toxicity testing was carried out to determine adverse effects due to compounds (including weight loss, hair appearance, skin wounds and behavioural changes), and recorded daily.

[8] = tested on: P. falciparum IPC5202 ring-stage parasites; assay: Ring-stage survival assay (RSA), IPC5202; assay type: cell-based, Plasmodium falciparum; conditions: 6 h pulse, 10 x IC50 (DHA 700 nM), ART-R strain IPC5202
Procedure: as §3

Swiss albino mice = assay: Acute toxicity observation in treated mice; assay type: in vivo; conditions: 50 mg/kg/day oral, monitored daily
Procedure: as §4

[9] = Solubility remark in the IC50 table; assay type: physicochemical; design: key: ?: Low solubility; conditions: symbol printed in the IC50 cells
From the text: Supplement 12936_2018_2281_MOESM1_ESM.docx, table 1: Table 1: Antiplasmodial activity in vitro (IC50) against resistant and sensitive P. falciparum strains. | column: P. falciparum IC50 ± SD (nM)

[10] = Plasmodium falciparum, 3D7, strain 3D7
[11] = Plasmodium falciparum, DD2, strain Dd2
[12] = mice, 50 mg/kg/day oral for 4 days, day 5
[13] = mice, 50 mg/kg/day oral for 4 days

Compound | IC50 [1, 10] [nM] | LD50 V79 [2] [mM] | Selectivity index LD50 (V79)/IC50 (3D7) [2] | Selectivity index LD50 (V79)/IC50 (Dd2) [2] | Selectivity index LD50 (HepG2)/IC50 (3D7) [3] | Selectivity index LD50 (HepG2)/IC50 (Dd2) [3] | LD50 HepG2 [3] [mM] | Resistance Index RIb = IC50 (IPC5202)/IC50 (3D7) [4] | IC50 [4] [nM] | Resistance Index RIc = IC50 (IPC4912)/IC50 (3D7) [5] | IC50 [5] [nM] | IC50 [6, 11] [nM] | other results
C[C@@H]1CC[C@H]2[C@@H](C)C(=O)O[C@@H]3O[C@@]4(C)CC[C@@H]1[C@]32OO4 [ART, artemisinin, reference compound] | 4 ± 0.1 | > 0.4 | 104844.6 | 168515.4 | 104844.6 | 168515.4 | 0.4 | 8.32 | 33.3 ± 8 | 3.32 | 13.3 ± 2.2 | 2.5 ± 0.1 | IC50 ([1]; strain 3D7): 3.97 ± 0.08 nM; Selectivity index LD50 (V79)/IC50 (IPC4912) [2]: 31295.7; Selectivity index LD50 (V79)/IC50 (IPC5202) [2]: 12499.5; Selectivity index LD50 (HepG2)/IC50 (IPC4912) [3]: 31295.7; Selectivity index LD50 (HepG2)/IC50 (IPC5202) [3]: 12499.5; IC50 ([6]; strain Dd2): 2.47 ± 0.1 nM
C[C@H]1[C@H](OC(=O)CCC(=O)O)O[C@@H]2O[C@@]3(C)CC[C@H]4[C@H](C)CC[C@@H]1[C@@]24OO3 [ATN, artesunate, reference compound] | 5.1 ± 0.1 |  |  |  |  |  |  | 0.67 | 3.4 ± 0.1 | 0.76 | 3.9 ± 1.2 | 4.6 ± 1.4 | Resistance Index RIa = IC50 (Dd2)/IC50 (3D7) [6]: 0.9
c1ccc(N2N=NNC23OOC2(O3)C3CC4CC(C3)CC2C4)cc1 (centres unmarked) [LC28] | 3660 ± 1490 | > 1 | 273.3 | 887.3 | 273.3 | 887.3 | 1.0 |  |  |  |  | 1130 ± 188 | Resistance Index RIa = IC50 (Dd2)/IC50 (3D7) [6]: 0.3
O=S1(=O)N=C(Cl)c2ccccc21 [LC60, 3-chloro-1,2-benzisothiazole-1,1-dioxide] | > 10000 | > 1 |  |  |  |  | 1.0 |  |  |  |  | > 10000 | 
CC(C)(C)OC(=O)NCCCCN [LC64, tert-butyl(4-aminobutyl)carbamate] | > 10000 | > 1 |  |  |  |  | 1.0 |  |  |  |  | > 10000 | 
NCC1CCC2(CC1)OOC1(O2)C2CC3CC(C2)CC1C3 (centres unmarked) [LC95] | 29.6 ± 5.18 | > 1 | 3441.7 | 1784.7 | 3441.7 | 1784.7 | 1.0 |  |  |  |  | 56.3 ± 1 | 
O=c1nn[nH]n1-c1ccccc1 [LC133, 1-phenyl-1H-tetrazol-5-one] | > 10000 | > 1 |  |  |  |  | 1.0 |  |  |  |  | > 10000 | antiplasmodial activity of building blocks in words ([6]; tested separately, Dd2 and 3D7 (Additional file 1)): devoid of antiplasmodial activity
O=C(Nc1nnn[nH]1)C1CCC2(CC1)OOC1(O2)C2CC3CC(C2)CC1C3 (centres unmarked) [LC142] | 117 ± 33.2 | > 1 | 8568.9 | 9354.5 | 8568.9 | 9354.5 | 1.0 |  |  |  |  | 107 ± 45.4 | Resistance Index RIa = IC50 (Dd2)/IC50 (3D7) [6]: 0.9
C1C2CC3CC1CC(C2)C31OOC2(CCC(Nc3nnn[nH]3)CC2)OO1 (centres unmarked) [LC163] | < 100 | > 1 | 15873.0 | 22988.5 | 15873.0 | 22988.5 | 1.0 | 1.13 | 71.1 ± 1.1 | 0.30 | 18.6 ± 16.9 |  | IC50 ([1]; strain 3D7): 63 ± 0.7 nM; Selectivity index LD50 (V79)/IC50 (IPC4912) [2]: 53763.4; Selectivity index LD50 (V79)/IC50 (IPC5202) [2]: 14064.7; Selectivity index LD50 (HepG2)/IC50 (IPC4912) [3]: 53763.4; Selectivity index LD50 (HepG2)/IC50 (IPC5202) [3]: 14064.7; Ring-stage survival rate (RSA), percentage of viable parasites, 3D7 [7]: 6.9 ± 1.6% and > 1%; in vivo outcome against P. berghei in words (Plasmodium berghei NK65; 50 mg/kg/day oral for 4 days): recrudescence also occurred on day 10; inhibition in vivo at 50 mg/kg/day (Plasmodium berghei NK65; 120 h, mice, 50 mg/kg/day oral for 4 days, day 5, vs control group, read-out: % inhibition of parasite growth, Day 5 (converted)): 100%; inhibition in vivo at 50 mg/kg/day (Plasmodium berghei NK65; 168 h, mice, 50 mg/kg/day oral for 4 days, day 7, vs control group, read-out: % inhibition of parasite growth, Day 7 (converted)): 100%; inhibition in vivo at 50 mg/kg/day (Plasmodium berghei NK65; 240 h, mice, 50 mg/kg/day oral for 4 days, day 10, vs control group, read-out: % inhibition of parasite growth, Day 10 (converted)): 96.5%; Mean parasitaemia ± SD, Day 5 (Plasmodium berghei NK65; [12]): 0%; Mean parasitaemia ± SD, Day 7 (Plasmodium berghei NK65; [13]): 0%; Mean parasitaemia ± SD, Day 10 (Plasmodium berghei NK65; [13]): 0.2 ± 0.13%; Ring-stage survival rate (RSA), percentage of viable parasites, IPC5202 [8]: 2.0 ± 1.9% and > 1%
CC(C)(C)OC(=O)NCCCCNC(=O)C1CCC2(CC1)OOC1(O2)C2CC3CC(C2)CC1C3 (centres unmarked) [MIS13] |  | > 1 | 135135.1 | 294117.6 | 44594.6 | 97058.8 | 0.3 | 0.23 | 1.7 ± 1.1 | 0.04 | 0.3 ± 0.3 |  | Selectivity index LD50 (V79)/IC50 (IPC4912) [2]: 3333333.3; Selectivity index LD50 (V79)/IC50 (IPC5202) [2]: 588235.2; Selectivity index LD50 (HepG2)/IC50 (IPC4912) [3]: 1100000.0; Selectivity index LD50 (HepG2)/IC50 (IPC5202) [3]: 194117.6; decrease in HepG2 survival ([3]; maximum dose of 1 mM): ~30%; adverse effects in vivo (Swiss albino mice): no adverse effects were observed; in vivo outcome against P. berghei in words (Plasmodium berghei NK65; 50 mg/kg/day oral for 4 days): by day 10 the five mice were cured; also recorded: totally suppressed P. berghei parasitaemia; inhibition in vivo at 50 mg/kg/day (Plasmodium berghei NK65; po, 120 h, read-out: % inhibition of parasite growth, Day 5): 92.6%; inhibition in vivo at 50 mg/kg/day (Plasmodium berghei NK65; po, 168 h, read-out: % inhibition of parasite growth, Day 7): 98.6%; inhibition in vivo at 50 mg/kg/day (Plasmodium berghei NK65; po, 240 h, read-out: % inhibition of parasite growth, Day 10): 100%; mice presenting parasitaemia, day 5 (Plasmodium berghei NK65; groups of five mice, 50 mg/kg/day oral, day 5): 1/5; Mean parasitaemia ± SD, Day 5 (Plasmodium berghei NK65; [12]): 0.11 ± 0.19%; Mean parasitaemia ± SD, Day 7 (Plasmodium berghei NK65; [13]): 0.05 ± 0.10%; Mean parasitaemia ± SD, Day 10 (Plasmodium berghei NK65; [13]): 0%
NCCCCNC(=O)C1CCC2(CC1)OOC1(O2)C2CC3CC(C2)CC1C3 (centres unmarked) [MIS15] |  | > 1 |  |  |  |  | 1.0 |  |  |  |  |  | solubility remark (no IC50 obtained) [9]: ?
NCCCCNC1CCC2(CC1)OOC1(O2)C2CC3CC(C2)CC1C3 (centres unmarked) [MIS16] |  | > 1 |  |  |  |  | 1.0 |  |  |  |  |  | solubility remark (no IC50 obtained) [9]: ?
